Data taken from US20040106671A1, “Remedies for vesical hyperesthesia” (priority 2001, published 2004).

What was measured:
dd male mice = assay: Acute toxicity test; type: in vivo; conditions: oral administration, mortality on the seventh day after the administration
Experimental: The test compound was administered orally or intraperitoneally to 3 animals per group of dd male mice (body weight: 20±1 g). The minimum lethal dose (MLD) value was obtained by observing mortality on the seventh day after the administration.

[1] = tested on: Hypersensitivity of Bladder with Cystitis; assay: Inhibitory activity on hypersensitivity of bladder with cystitis (cystometry, xylene-induced cystitis); type: in vivo, Male SD rats; conditions: oral, rats with xylene-induced cystitis; for pre-micturition contractions (amplitude, relative value, value before administration defined as 100): 0.05 mg/mL suspension at 2 mL/kg, average ± standard error, n = 13
Experimental: The experiment was carried out by referring to the method of Morikawa, et al. [Jpn. J. Pharmacol., Vol. 52, pp. 587-595 (1990)]. Male SD rats weighing from 250 to 400 g (supplied by Japan SLC) were used in the test. Five to seven animals of these rats were put in each metal cage and reared by allowing them to freely take commercially available chow and water, in an animal room at room temperature between 19 and 25° C. and humidity between […] and 70% under illumination for 12 hours (from 7:00 a.m. to 7:00 p.m.) per day. The rats were subjected to bladder catheterization. Under anesthesia with pentobarbital sodium, the bladder was exposed by midline incision of the abdomen. […] The bladder catheter was fixed with a surgical silk ligature and indwelled. The other end of the catheter was exposed subcutaneously from the back of the neck, plugged and then fixed to the skin with a surgical thread. Two to three days after the bladder catheterization, a cystometry test was performed. The rats were put in a Bollman cage (Natsume Seisakusho Co., Ltd.) and a three-way cock was connected to the bladder catheter, one end of the cock was connected to a pressure transducer (Nihon Kohden Corp.) and the other end was connected to a 50-mL syringe (Terumo Corp.) arranged to an infusion pump (Harvard Apparatus, Inc.) for physiological saline infusion. The intravesical pressure signal from the pressure transducer was amplified with a strain pressure amplifier (AP-601G, Nihon Kohden Corp.) connected thereto, and was recorded on a thermal array recorder (RTA-1200, Nihon Kohden Corp.) via a polygraph system (RMP-6008, Nihon Kohden Corp.) containing the above amplifier. After the completion of the preparation for the measurement, a room temperature physiological saline was continuously infused into the bladder at a flow rate of 3 mL/h, and the intravesical pressure was measured to observe micturition intervals. After the micturition intervals became constant, the intravesical pressure waveform was recorded for one hour. Then, saline infusion was stopped, and 0.5 mL of xylene (Wako Pure Chemical Industries, Ltd.) was infused into the bladder through the catheter and was removed about 10 seconds later to cause cystitis. After 30 minutes, the continuous infusion of saline was started again and the intravesical pressure was monitored for about one hour to obtain the value before dosing. The test compound was suspended in a 0.5 w/v % aqueous solution of methylcellulose at a concentration of 0.05 mg/mL. The suspension or a vehicle was orally administered to the animals at a volume of 2 mL/kg. After the administration of the test compound, the intravesical pressure waveform was recorded for 4.5 hours. […] Pre-micturition contraction was measured as an index of bladder hypersensitivity. The values of pre-micturition contractions were read from the intravesical pressure waveform recorded on a chart paper using a digitizer (KD3220, Graphtec Corporation) controlled by a computer (PC-9801NS/R, NEC), and saved as a WJ2 file on Lotus 1-2-3 R2.5J (Lotus). […] The amplitude of pre-micturition contractions was expressed as a relative value when the value before the drug administration that was defined as 100, and the average ±standard error was calculated for each group.

## C[C@](O)(C(=O)Nc1cccc2c1C(=O)c1sccc1CS2(=O)=O)C(F)(F)F [Compound 1, (S)-(+)-N-(5,5-dioxido-10-oxo-4,10-dihydrothieno[3,2-c][1]benzothiepin-9-yl)-3,3,3-trifluoro-2-hydroxy-2-methylpropanamide]
Dd male mice
  minimum lethal dose (MLD): > 1000 mg/kg
[1]; After 1 hour
  pre-micturition contractions (amplitude, relative value, value before administration defined as 100): 71.5 ± 6.5%
[1]; After 2 hours
  pre-micturition contractions (amplitude, relative value, value before administration defined as 100): 64.7 ± 6.8 %
[1]; After 3 hours
  pre-micturition contractions (amplitude, relative value, value before administration defined as 100): 61.7 ± 6.8 %
[1]; After 4 hours
  pre-micturition contractions (amplitude, relative value, value before administration defined as 100): 61.6 ± 5.4 %
[1]; Test Example 1
  effect on pre-micturition contractions (in words): inhibited pre-micturition contractions
